The subject of the test is transaldolase (Taizhou Lingfeng Biotechnology Co., Ltd., LF145). Description: Effect of acetaldehyde on the activity of transaldolase. It is filed as biochemical. Particulars: reaction 10 min, 35° C., HPLC, without acetaldehyde 3.31 g/L. How it is done: In a 50 mL round-bottom flask, 10 mL of a reaction system contained 14 g/L p-methylsulfonylbenzaldehyde, 10.5 g/L threonine, 1 g/L pyridoxal phosphate, and 1 mL of transaldolase (Taizhou Lingfeng Biotechnology Co., Ltd., LF145), different concentrations (0, 1 g/L, 5 g/L, 10 g/L, and 20 g/L) of acetaldehyde were respectively prepared, the mixture was shaken in a water bath at 35° C. for 10 min, and the content of D-acid produced was detected by HPLC.

In the case of `CC=O` [acetaldehyde], the “(2S,3R)-p-methylsulfonylphenylserine produced” value (1 g/L acetaldehyde added) is reported as 1.76 g/L, the “(2S,3R)-p-methylsulfonylphenylserine produced” value (5 g/L acetaldehyde added) amounted to 0.66 g/L, the “(2S,3R)-p-methylsulfonylphenylserine produced” value (10 g/L acetaldehyde added) is 0.303 g/L and the “(2S,3R)-p-methylsulfonylphenylserine produced” value (20 g/L acetaldehyde added) is reported as 0.153 g/L.
